Measured values taken from patent publication US20050037067A1, “3,7-Diazabicyclo [3.3.1]formulations as anti-arrhythmic compounds” (priority 2001, published 2005).
Where a name gives a salt, the structure may show the parent alone.

Assay: Solubility of the salt in vehicle compared to water alone
Format: physicochemical
Protocol: Salt was dissolved in the 40/60 (w/w %) hydroxypropyl-β-cyclodextrin/water vehicle.
The solubility of the salt was almost 40 times higher in this vehicle compared to water alone.
Salt was dissolved in PEG 400, ethanol and the surfactant Solutol™ (BASF; comprises polyethylene glycol esters of 12-OH-stearic acid). Water was added to the final volume. The solubility of the benzenesulphonate salt was approximately 4 times higher in this vehicle than it is in water alone.

CC(C)(C)C(=O)CN1CC2CN(CCCNc3ccc(C#N)cc3)CC(C1)O2 [Compound A, benzenesulphonic acid salt, 4-({3-[7-(3,3-dimethyl-2-oxobutyl)-9-oxa-3,7-diazabicyclo[3.3.1]non-3-yl]propyl}amino)benzonitrile]
solubility in vehicle compared to water alone (vehicle Polyethyleneglycol 400/Ethanol/Solutol/Water (40/10/5/45 w/w %)): approximately 4 times
solubility in vehicle compared to water alone (vehicle hydroxypropyl-β-cyclodextrin/water (40/60 w/w %)): ~40 times
